Measured values from patent publication US12291494B2, “Methods of treating fibrosis” (Nogra Pharma Limited, priority 2012, dated 2025).
“Also recorded” adds a separate entry of the source.

Columns and labels:
C57BL/6 mice = assay: DSS chronic colitis (Ex. 7): macroscopic colonic findings; assay type: in vivo
Description: Finally, seven days after the last DSS cycle administration, the animals of each group were sacrificed by cervical dislocation under deep CO2 anaesthesia and undergone to laparotomy. The colon were visualized and rapidly excised. The length of the whole colon-rectum and the weight of the distal 8 cm of colon-rectum were measured.
The macroscopic colonic lesions including dilation, thickness and stenosis were scored by an independent observer, unaware of the mice treatment. Tissue specimens from the colon were dissected and immediately frozen or fixed in fresh 4% formaldehyde (FA)/PBS solution for 3 h at room temperature followed by the standard procedure for paraffin embedding. Paraffin embedded tissues transversally sectioned at 3 μm were subject to Hematoxylin/Eosin staining, to assess the inflammatory degree, and Masson trichrome to better assess connective tissue and fibrosis. The stained sections were then blindly observed under an Olympus BX51 Light Microscope (Olympus, Optical Co. Ltd., Tokyo, Japan) by two pathologists which have performed the histological score evaluating: i. presence of ulcers (0=absent, 1=little ulcers, 2=big ulcers); ii. the inflammatory degree (0=absent 1=mild, 2=moderate and 3=severe); iii. depth of lesions (0=absent, 1=lesions extending in the submucosa, 2=lesions in the muscolarispropria and 3=lesions in the serosa); iv. degree of fibrosis (0=absent 1=mild, 2=moderate and 3=severe). The degree of intestinal inflammation was assessed according to the density and extent of chronic inflammatory infiltrate, loss of goblet cells, and bowel wall thickening. A total microscopic score will be obtained as sum of all scores (maximum score possible=[…]).
At no stage frank rectal bleeding or rectal prolapse were observed. The mice were sacrificed on day 15 and day 30, respectively, and the colon was subjected to macroscopic evaluation by measuring of colon weight (referred to the last 8 cm of the distal large bowel) and colon length and by observing the presence of adhesions, strictures, dilatation, thickness that was scored as 0 if absent; 1 if mild or moderate; and 2 if severe. The total macroscopic score was calculated as sum of all these score.

IL-13 = assay: DSS chronic colitis (Ex. 7): Western blot, IL-13; assay type: in vivo, mice; settings: percentage of optical density vs control group, normalized with GAPDH; DSS 189.5%±28.71%
Description: 0.5 cm of frozen colonic samples were cut and mechanically homogenized in RIPA Buffer containing 50 mMTrisHCl pH 7.6, 150 mMNaCl, 1.5 mM MgCl2, 5 mM EDTA, 1% Triton-X and 10% Glycerol, supplemented with 100 mM Sodium Fluoride (NaF), 2 mM Sodium Orthovanadate (Na3VO4), 10 mM Sodium Pyrophosphate (NaPPi), 1 mMphenylmethanesulphone (PMSF) and a classical protease-inhibitor cocktail containing 10 μg/mL Leupeptin and Aprotinin.
30 μg of protein for each sample were separated by PAGE and electroblotted. 100% pure Nitrocellulose membranes were incubated (according with a specific protocol for each antibody) with primary antibodies directed against TGF-β1, CTGF, α-SMA, Collagen-I and GAPDH (purchased from Abcam, Cambridge, UK; 1:1000 for 2 h at RT), and IL-13 (purchased from Antibodies online; 1:1000 for 2 h at RT) diluted in 5% non fat-milk in 0.1% TBS-t. […] Optical density of target bands was determined using a computer-assisted densitometer and the ImageJ public domain software (W. S., Rasband, ImageJ, U. S. National Institutes of Health, Bethesda, MD; http://rsb.info.nih.gov/ij/, 1997-2011). Tissue levels were expressed as units of Optical Density (OD) per quantity of total proteins, normalizing with internal control GAPDH and the results were expressed as percentage of control groups.

Collagen-1 = assay: Liver gene expression by quantitative Real Time PCR: collagen-1; assay type: in vivo, mice; settings: liver mRNA, normalized to β-actin, CCl4 group 138.12 ± 34.68
Description: The effect of administration of compound 34 (GED) and the specific CB2 agonist (JWH-133) was evaluated on the level of gene expression of cytokines (IL-1β, TNF-α) and genes involved in the mechanism of fibrosis by quantitative Real Time PCR.
Total RNA was isolated from livers using Rneasy kit (Macherey Nagel, Hoerdt, France) according to the manufacturer's instructions. RNA quantification was performed using spectrophotometry. After treatment at 37° C. for 30 min with 20-50 units of RNase-free DNase I (Roche Diagnostics Corporation, Indianapolis, IN, USA), oligo-dT primers (Roche Diagnostics Corporation, Indianapolis, USA) were used to synthesize single-stranded cDNA. mRNAs were quantified using SYBR green Master Mix (Applera, Courtaboeuf, France) with murine specific oligonucleotides (see Table 2) in a GeneAmp Abiprism 7000 (Applera, Courtaboeuf, France). In each assay, calibrated and no-template controls were included. Each sample was run in triplicate. SYBR green dye intensity was analyzed using the Abiprism 7000 SDS software (Applera, Courtaboeuf, France). All results were normalized to the unaffected housekeeping gene β-actin.

[1] = system: liver biochemical parameters in the serum of mice (AST, ALT, Gamma GT, Alkaline phosphatase); assay: Liver blood enzyme analysis in serum; assay type: in vivo; settings: 4 days after the last administration of CCl4
Description: The effect of oral administration of compound 34 (GED) and the specific CB2 agonist (JWH-133) was evaluated on different liver biochemical parameters in the serum of mice: hepatic enzymes ([…]), Gamma GT and the Alkaline phosphatase.

[2] = chronic DSS colitis, GED 30 mg/kg oral daily, mean ± SEM

COC(Cc1ccc(N)cc1)C(=O)O (racemic) [Compound 34, (±)-2-methoxy-3-(4′-aminophenyl) propionic acid]
reduction respect to the profibrotic effect of DSS (colon ratio weight/size) (C57BL/6 mice; Ex. 7, GED 30 mg/kg oral daily): 26%
ratio weight/size of the colon (C57BL/6 mice; Ex. 7, GED 30 mg/kg oral daily, DSS 44.98±6.31, control 20.11±3.91): 38.13±7.82
Adhesions (score 0-2) (C57BL/6 mice; [2]): 0.12 ± 0.1^¥¥
Colon length (C57BL/6 mice; [2]): 7.092 ± 0.16**/ ^
Colon weight/body weight ratio (C57BL/6 mice; [2]): 0.27 ± 0.012**/^¥¥
Dilation (score 0-2) (C57BL/6 mice; [2]): 1.12 ± 0.185**/^¥¥
Stenosis (score 0-2) (C57BL/6 mice; [2]): 0.32 ± 0.114**/^¥
Thickness (score 0-2) (C57BL/6 mice; [2]): 0.48 ± 0.108**/^¥
Total macroscopic score (C57BL/6 mice; chronic DSS colitis, GED 30 mg/kg oral daily, mean ± SEM, DSS 3.112 ± 0.31): 2.02 ± 0.26**/^¥¥
Colon weight (C57BL/6 mice; distal 8 cm of colon-rectum, chronic DSS colitis, GED 30 mg/kg oral daily, mean ± SEM): 0.269 ± 0.007 ^
IL-13 expression level (Western blot) (IL-13): 88.88%±14.01%
Collagen-1 (Collagen-1): 75.15 ± 5.23, p = 0.03
Collagen-1 (Collagen-1; listed as compound 34): 42.81±14.81
enhancement of blood liver enzymes (AST, ALT, Alk P) / liver toxicity [1]: not associated with any enhancement of blood liver enzymes; also recorded: without liver toxicity
